Values after ≈ are worked out from the molar mass of the structure shown. Like-named read-outs stand apart in the source and are kept apart here.
Columns and labels:
[1] = Solubility in water at pH 7; format: physicochemical
Description: The solubility of the compound of Example 8, in water at pH 7, was 0.2 mg/ml. The solubility of the corresponding free base, under the same conditions, was 0.002 mg/ml.

[2] = Pharmacokinetic profile in cannulated rats (oral dosing); format: in vivo; details: rat, oral dose 3 mg/kg, plasma
Description: The pharmacokinetic profile of the compounds of the invention is determined in rats cannulated in the right carotid artery for blood collection. For iv dosing, the compound is prepared in a suitable formulation, for example 10% v/v DMSO, 50% v/v PEG 400 in water, and dosing is carried out by cannulation of the left jugular vein. Samples are collected at 5 min, 0.5, 1, 2, 4, 6 and 8 hours post-dosing. For oral dosing, the compound is prepared in a suitable formulation such as 0.4% w/v methylcellulose in water Samples are collected at 0.5, 1, 2, 4, 6 and 8 hours post-dosing. In some cases, samples are also collected at 12 hours post-dosing. Plasma is obtained by centrifugation of the each blood sample and drug concentration is then determined using standard methods, such as liquid chromatography-mass spectrometry following protein precipitation.
Results are tabulated below, and are also shown in the accompanying drawing. The drawing is a graph of PK data following oral dosing in the rat; PC (plasma concentration; ng/ml) is plotted against t (time; hours). ▪ represents the compound of Example 8, and · the free base. The superiority of the novel compound is evident.

SMILES	solubility ([1]; aqueous buffer, read-out: solubility) [µg/mL]	Cmax (po) [2] [ng/mL]	AUC(0-t) ([2]; read-out: AUC0-last (po)) [ng·h/mL]	half-life ([2]; read-out: t1/2 (po) (converted)) [h]	solubility [1] [µg/mL]	AUC0-last (po) [2] [ng·h/mL]	t1/2 (po) [2] [h]
COc1ccc(C(=O)Nc2c(Cl)cncc2Cl)c2ccc(C(F)(F)F)nc12 [Free base, 8-Methoxy-2-trifluoromethylquinoline-5-carboxylic acid (3,5-dichloropyridin-4-yl)amide]	2 (≈ 4.81 µM)	1008	6860	4.5			
COc1ccc(C(=O)Nc2c(Cl)c[n+]([O-])cc2Cl)c2ccc(C(F)(F)F)nc12 [Example 8, 8-Methoxy-2-trifluoromethylquinoline-5-carboxylic Acid (3,5-dichloro-1-oxypyridin-4-yl)amide]		3054			200 (≈ 463 µM)	30169	20
